One molecule from US7759331B2, “Pyridine-containing macroheterococylic compounds as kinase inhibitors” (Janssen Pharmaceutica NV, priority 2006, dated 2010) can be followed below.

Common to all, as to assay: Protein kinase selectivity panel
Common to all, as to type: biochemical
Common to all, as to conditions: 1.0 μM compound, 10 μM ATP

One test deals with ROCK-II(r) (Rattus norvegicus, UniProt Q62868). Put shortly:
(§1)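 Kinase, its appropriate substrate, and 10 μM ATP were combined with 1.0 μM compound. Phosphorylation was then allowed to proceed within the time-linear range and measured.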

The next test has as its target MEK1(h) (Homo sapiens, UniProt Q02750). Summed up:
as §1

Another test addresses CDK3/cyclinE(h) (Homo sapiens, UniProt Q00526). Summed up:
as §1

In the next test the target is Tie2(h) (Homo sapiens, UniProt Q02763). Summed up:
as §1

A further test concerns the target Fyn(h) (Homo sapiens, UniProt P06241). Summed up: as §1
The target of the next test is CK1δ(h) (Homo sapiens, UniProt P48730). Summed up:
as §1

For a further test, the target named is CSK(h) (Homo sapiens, UniProt P41240). Put shortly: as §1
The next test has as its target Rsk2(h) (Homo sapiens, UniProt P51812). Put shortly: as §1
The next test addresses Rsk3(h) (Homo sapiens, UniProt Q15349). Put shortly:
as §1

The target in a further test is ROCK-II(h) (Homo sapiens, UniProt O75116). Put shortly:
as §1

A further test has as its target T1, MST2(h) (Homo sapiens, UniProt Q13188).
T1 sequence (Q13188 1-491): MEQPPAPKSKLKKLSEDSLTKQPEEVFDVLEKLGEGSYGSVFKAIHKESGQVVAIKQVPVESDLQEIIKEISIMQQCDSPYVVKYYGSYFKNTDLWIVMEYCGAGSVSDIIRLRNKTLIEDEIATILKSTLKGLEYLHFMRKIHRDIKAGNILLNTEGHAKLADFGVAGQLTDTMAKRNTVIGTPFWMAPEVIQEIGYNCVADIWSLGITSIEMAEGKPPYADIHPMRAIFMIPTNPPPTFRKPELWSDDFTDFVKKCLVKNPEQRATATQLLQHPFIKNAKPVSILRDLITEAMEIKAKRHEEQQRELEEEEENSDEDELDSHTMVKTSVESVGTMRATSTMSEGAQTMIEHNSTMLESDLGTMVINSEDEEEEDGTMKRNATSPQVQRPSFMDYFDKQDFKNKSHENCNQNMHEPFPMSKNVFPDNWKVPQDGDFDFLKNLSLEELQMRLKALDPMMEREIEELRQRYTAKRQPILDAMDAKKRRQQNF
Summed up:
as §1

The target in a further test is T2, PKD2(h) (Homo sapiens, UniProt Q9BZL6).
T2 sequence (Q9BZL6 1-878): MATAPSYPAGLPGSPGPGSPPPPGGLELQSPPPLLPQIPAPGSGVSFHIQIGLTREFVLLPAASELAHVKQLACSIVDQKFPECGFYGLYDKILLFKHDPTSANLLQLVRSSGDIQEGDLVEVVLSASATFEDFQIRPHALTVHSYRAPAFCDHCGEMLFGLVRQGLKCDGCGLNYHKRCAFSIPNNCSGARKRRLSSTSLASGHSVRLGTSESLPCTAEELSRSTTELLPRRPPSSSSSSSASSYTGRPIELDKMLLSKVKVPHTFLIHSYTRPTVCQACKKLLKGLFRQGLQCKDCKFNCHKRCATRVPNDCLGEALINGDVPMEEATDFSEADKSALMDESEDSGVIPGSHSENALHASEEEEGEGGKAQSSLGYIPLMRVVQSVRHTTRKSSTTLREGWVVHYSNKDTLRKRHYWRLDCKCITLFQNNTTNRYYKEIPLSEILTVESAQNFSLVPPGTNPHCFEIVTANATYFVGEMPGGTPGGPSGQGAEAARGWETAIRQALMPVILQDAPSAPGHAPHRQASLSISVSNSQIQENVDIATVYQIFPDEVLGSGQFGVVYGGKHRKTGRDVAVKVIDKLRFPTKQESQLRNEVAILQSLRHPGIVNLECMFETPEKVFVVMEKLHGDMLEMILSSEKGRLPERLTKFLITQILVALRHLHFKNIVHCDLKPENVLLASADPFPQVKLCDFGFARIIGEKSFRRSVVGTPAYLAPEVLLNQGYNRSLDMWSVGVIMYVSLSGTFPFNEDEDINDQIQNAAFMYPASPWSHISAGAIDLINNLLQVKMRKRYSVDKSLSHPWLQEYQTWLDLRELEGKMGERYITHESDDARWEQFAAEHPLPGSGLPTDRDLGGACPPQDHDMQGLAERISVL
Summed up: as §1

In the next test the target is PKA(h) (Homo sapiens, UniProt P17612). Put shortly:
as §1

Another test addresses T3, PKCι(h) (Homo sapiens, UniProt P41743).
T3 sequence (P41743 1-596): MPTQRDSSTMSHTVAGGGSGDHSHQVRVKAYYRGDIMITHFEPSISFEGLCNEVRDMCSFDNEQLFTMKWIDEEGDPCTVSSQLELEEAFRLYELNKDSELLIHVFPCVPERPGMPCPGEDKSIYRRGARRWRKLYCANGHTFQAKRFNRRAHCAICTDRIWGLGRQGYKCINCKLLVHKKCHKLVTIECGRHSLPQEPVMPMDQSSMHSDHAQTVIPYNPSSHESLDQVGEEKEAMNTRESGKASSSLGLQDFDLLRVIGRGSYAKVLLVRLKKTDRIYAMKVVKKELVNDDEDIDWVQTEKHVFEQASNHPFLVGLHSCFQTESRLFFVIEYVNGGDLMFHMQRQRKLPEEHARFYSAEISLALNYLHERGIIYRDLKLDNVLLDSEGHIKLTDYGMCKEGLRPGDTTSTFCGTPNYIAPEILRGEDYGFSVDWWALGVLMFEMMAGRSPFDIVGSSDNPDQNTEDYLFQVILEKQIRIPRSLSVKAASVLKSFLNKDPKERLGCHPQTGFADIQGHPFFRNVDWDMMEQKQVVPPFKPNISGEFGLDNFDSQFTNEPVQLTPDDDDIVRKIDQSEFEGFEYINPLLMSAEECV
Put shortly: as §1

In another test the target is IGF-1R(h) (Homo sapiens, UniProt P08069). Summed up:
as §1

Chain of ROCK-II(r) (Q62868 whole entry): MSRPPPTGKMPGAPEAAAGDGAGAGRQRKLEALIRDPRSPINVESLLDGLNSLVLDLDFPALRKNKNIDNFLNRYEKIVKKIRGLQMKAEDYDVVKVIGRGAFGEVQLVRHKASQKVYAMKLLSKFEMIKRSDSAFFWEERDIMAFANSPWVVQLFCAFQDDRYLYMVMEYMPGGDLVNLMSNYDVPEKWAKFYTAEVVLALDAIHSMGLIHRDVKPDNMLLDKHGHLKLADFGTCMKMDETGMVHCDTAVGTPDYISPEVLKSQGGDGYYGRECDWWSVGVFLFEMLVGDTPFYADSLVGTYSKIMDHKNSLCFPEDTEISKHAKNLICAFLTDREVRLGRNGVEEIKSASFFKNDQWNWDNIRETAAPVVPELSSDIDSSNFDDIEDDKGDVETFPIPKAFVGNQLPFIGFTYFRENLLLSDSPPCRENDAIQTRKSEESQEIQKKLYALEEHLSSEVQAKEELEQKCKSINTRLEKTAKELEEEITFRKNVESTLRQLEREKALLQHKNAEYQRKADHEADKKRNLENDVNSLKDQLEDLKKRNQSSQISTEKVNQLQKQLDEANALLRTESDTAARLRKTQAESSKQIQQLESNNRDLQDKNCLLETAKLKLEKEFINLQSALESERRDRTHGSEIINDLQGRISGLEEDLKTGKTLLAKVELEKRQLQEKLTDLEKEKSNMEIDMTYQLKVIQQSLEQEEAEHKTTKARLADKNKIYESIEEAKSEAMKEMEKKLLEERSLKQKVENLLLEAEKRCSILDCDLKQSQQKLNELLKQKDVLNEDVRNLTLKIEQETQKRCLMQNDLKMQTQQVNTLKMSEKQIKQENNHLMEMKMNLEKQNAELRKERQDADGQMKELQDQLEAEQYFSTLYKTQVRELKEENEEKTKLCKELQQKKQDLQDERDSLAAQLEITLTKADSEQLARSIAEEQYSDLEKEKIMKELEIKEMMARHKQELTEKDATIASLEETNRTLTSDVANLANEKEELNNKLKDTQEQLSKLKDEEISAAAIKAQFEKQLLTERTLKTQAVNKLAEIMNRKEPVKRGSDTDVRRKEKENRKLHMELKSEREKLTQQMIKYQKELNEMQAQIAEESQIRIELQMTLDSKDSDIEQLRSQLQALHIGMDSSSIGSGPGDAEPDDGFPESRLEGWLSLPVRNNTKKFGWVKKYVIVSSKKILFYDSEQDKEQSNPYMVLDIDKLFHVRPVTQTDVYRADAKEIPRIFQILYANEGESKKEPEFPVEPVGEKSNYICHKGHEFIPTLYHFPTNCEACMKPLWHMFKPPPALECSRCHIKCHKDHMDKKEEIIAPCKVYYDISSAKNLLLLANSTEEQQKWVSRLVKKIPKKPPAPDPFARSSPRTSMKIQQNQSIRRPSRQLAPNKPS
Chain of IGF-1R(h) (P08069 31-1367): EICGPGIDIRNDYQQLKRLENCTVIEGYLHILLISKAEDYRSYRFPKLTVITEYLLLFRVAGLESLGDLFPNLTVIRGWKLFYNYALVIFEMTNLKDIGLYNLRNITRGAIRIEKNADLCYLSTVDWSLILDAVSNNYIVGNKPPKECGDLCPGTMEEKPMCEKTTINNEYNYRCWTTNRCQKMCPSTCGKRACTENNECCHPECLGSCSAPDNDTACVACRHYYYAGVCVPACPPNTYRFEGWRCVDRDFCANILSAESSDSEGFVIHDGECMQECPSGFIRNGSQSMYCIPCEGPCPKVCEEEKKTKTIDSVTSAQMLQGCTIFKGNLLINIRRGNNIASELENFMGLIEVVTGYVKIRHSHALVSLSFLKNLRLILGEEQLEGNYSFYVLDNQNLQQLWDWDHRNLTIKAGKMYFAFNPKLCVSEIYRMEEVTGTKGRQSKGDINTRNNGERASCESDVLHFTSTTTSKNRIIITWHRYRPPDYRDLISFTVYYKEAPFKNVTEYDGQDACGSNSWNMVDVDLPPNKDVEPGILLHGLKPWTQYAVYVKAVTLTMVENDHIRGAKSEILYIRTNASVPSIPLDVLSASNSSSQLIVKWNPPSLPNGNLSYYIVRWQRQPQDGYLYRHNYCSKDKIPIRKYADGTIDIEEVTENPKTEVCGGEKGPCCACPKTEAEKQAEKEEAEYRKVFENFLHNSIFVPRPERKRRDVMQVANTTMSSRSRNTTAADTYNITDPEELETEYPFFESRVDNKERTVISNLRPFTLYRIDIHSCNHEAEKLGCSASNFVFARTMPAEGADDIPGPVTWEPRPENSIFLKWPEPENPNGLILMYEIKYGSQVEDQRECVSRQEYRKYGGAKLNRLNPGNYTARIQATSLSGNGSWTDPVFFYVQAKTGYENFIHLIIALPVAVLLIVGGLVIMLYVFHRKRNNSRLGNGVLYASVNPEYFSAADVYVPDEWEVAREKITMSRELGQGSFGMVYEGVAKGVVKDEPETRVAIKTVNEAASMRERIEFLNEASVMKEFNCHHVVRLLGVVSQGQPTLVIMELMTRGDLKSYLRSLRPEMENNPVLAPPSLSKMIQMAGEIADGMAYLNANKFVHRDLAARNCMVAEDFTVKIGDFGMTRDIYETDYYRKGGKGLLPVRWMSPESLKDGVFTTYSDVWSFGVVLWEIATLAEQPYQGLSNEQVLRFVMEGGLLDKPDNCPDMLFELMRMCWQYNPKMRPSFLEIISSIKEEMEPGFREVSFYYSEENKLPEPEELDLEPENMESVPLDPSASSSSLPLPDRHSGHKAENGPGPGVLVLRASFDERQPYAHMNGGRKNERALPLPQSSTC
Chain of Rsk2(h) (P51812 whole entry): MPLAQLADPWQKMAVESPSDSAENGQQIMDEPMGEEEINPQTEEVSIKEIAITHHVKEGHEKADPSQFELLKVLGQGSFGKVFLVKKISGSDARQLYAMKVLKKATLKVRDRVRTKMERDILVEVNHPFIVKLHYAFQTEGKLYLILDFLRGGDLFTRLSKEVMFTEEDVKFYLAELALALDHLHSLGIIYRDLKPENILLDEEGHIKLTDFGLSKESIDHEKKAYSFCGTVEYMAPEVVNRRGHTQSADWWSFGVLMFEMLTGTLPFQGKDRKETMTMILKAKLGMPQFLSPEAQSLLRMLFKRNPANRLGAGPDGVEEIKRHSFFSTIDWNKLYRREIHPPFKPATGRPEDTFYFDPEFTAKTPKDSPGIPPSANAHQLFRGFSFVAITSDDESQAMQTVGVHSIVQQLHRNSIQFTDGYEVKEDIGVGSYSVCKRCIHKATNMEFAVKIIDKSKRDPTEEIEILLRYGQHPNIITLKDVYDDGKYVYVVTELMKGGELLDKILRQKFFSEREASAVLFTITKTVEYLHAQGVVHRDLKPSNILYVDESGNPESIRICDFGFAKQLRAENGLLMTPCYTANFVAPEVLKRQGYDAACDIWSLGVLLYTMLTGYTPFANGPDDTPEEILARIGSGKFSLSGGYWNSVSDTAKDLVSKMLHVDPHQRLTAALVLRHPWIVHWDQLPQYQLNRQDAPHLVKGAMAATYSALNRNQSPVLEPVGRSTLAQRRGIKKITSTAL
Chain of MEK1(h) (Q02750 whole entry): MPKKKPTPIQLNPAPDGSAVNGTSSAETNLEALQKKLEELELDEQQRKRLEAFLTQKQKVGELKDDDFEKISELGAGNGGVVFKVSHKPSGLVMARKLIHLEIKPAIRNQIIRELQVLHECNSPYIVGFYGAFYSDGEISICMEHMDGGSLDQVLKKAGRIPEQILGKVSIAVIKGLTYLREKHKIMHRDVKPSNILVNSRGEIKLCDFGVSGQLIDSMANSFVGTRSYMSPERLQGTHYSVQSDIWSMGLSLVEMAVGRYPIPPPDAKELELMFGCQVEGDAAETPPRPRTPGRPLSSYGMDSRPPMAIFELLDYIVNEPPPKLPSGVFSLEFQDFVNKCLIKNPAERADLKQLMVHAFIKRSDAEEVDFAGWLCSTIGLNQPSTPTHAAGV
Chain of CSK(h) (P41240 whole entry): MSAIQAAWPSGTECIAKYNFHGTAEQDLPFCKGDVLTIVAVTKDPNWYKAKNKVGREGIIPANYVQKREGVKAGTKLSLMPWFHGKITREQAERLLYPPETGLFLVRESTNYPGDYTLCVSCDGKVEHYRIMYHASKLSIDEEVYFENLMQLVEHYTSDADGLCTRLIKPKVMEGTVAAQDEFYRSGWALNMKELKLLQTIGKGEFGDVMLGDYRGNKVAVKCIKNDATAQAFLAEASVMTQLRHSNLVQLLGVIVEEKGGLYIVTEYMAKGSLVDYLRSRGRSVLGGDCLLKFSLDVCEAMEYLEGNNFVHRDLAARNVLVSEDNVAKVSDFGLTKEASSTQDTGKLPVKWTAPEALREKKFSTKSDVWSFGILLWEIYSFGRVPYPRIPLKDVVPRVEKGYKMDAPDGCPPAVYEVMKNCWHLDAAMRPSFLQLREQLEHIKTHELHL
Chain of Rsk3(h) (Q15349 whole entry): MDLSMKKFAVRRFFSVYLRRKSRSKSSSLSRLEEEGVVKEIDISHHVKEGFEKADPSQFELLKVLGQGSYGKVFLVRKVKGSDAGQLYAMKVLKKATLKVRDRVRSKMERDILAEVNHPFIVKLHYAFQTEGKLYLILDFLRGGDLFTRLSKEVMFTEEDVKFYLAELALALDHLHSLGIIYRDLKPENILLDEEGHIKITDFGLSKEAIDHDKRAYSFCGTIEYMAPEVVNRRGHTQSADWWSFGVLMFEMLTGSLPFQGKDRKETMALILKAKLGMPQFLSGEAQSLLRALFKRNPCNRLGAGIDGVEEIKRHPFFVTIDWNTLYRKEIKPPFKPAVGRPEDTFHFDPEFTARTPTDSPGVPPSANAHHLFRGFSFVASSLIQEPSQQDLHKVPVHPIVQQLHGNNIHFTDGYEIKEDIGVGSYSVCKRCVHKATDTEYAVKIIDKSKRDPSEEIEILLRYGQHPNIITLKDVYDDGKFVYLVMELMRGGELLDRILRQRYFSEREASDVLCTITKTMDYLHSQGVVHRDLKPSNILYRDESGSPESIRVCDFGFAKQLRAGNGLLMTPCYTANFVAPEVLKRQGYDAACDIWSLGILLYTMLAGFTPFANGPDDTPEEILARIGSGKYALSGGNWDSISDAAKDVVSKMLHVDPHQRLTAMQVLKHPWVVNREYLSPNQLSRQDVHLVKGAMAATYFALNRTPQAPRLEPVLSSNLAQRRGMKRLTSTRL

Turning to `O=C1NC(=O)C2=C1c1cn(c3ccccc13)CCCc1ccc(c(N3CCCC3)n1)CCCn1cc2c2ccccc21` [Cpd 7, 31-pyrrolidin-1-yl-5,15,25,30-tetraazaheptacyclo[27.2.2.1^5,12.1^18,25.0^6,11.0^13,17.0^19,24]pentatriaconta-1(31),6,8,10,12(35),13(17),18(34),19,21,23,29,32-dodecaene-14,16-dione], the “Activity at Protein Kinase Assays (% of control), ROCK-II(r)” value on ROCK-II(r) is 91 % of control. Also, the “Activity at Protein Kinase Assays (% of control), MEK1(h)” value at MEK1(h) is given as 98 % of control. The “Activity at Protein Kinase Assays (% of control), CDK3/cyclinE(h)” value at CDK3/cyclinE(h) is 106 % of control. Moreover, at Tie2(h), the “Activity at Protein Kinase Assays (% of control), Tie2(h)” value is recorded as 107 % of control. For the same molecule, at Fyn(h), the “Activity at Protein Kinase Assays (% of control), Fyn(h)” value is recorded as 103 % of control. Moreover, the “Activity at Protein Kinase Assays (% of control), CK1δ(h)” value at CK1δ(h) is recorded as 109 % of control. In addition, on CSK(h), the “Activity at Protein Kinase Assays (% of control), CSK(h)” value is reported as 129 % of control. For the same molecule, the “Activity at Protein Kinase Assays (% of control), Rsk2(h)” value on Rsk2(h) is listed as 63 % of control. Besides, the “Activity at Protein Kinase Assays (% of control), Rsk3(h)” value at Rsk3(h) is 25 % of control. Also, the “Activity at Protein Kinase Assays (% of control), ROCK-II(h)” value at ROCK-II(h) is listed as 104 % of control. The “Activity at Protein Kinase Assays (% of control), MST2(h)” value on MST2(h) is on record as 86 % of control. For the same molecule, the “Activity at Protein Kinase Assays (% of control), PKD2(h)” value on PKD2(h) was 115 % of control. Also, the “Activity at Protein Kinase Assays (% of control), PKA(h)” value at PKA(h) was 102 % of control. Moreover, the “Activity at Protein Kinase Assays (% of control), PKCι(h)” value on PKCι(h) is 90 % of control. Moreover, on IGF-1R(h), the “Activity at Protein Kinase Assays (% of control), IGF-1R(h)” value was 106 % of control.
